In patent US12673954B2 (BRISTOL-MYERS SQUIBB COMPANY, priority 2021, dated 2026):
Like-named read-outs stand apart in the source and are kept apart here.

Experiments:
[1] = system: NF-κB pathway, THP1-Dual™ cells; experiment: STING reporter assay in THP1-Dual cells, NF-κB pathway (SEAP, QUANTI-Blue); type: cell-based, human; details: read-out: NFkB (EC50 μM)
In short: (§1)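 THP-1-derived dual-reporter cells treated with serially diluted compounds (final top concentration 100 μM) for 20 h at 37° C. NF-κB read as SEAP via QUANTI-Blue at OD620; IRF read as Lucia luminescence via QUANTI-Luc after 5 min. 100% activation set by 100 μM cGAMP, baseline by DMSO.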

[2] = system: IRF pathway, THP1-Dual™ cells; experiment: STING reporter assay in THP1-Dual cells, IRF pathway (Lucia luciferase, QUANTI-Luc); type: cell-based, human; details: read-out: IRF (EC50 μM)
In short: as §1

[3] = Homo sapiens, THP1-Dual, 20 h, THP1-Dual cells, 10% human plasma, 20 hours, SEAP, 100% activation = 100 μM cGAMP
[4] = Homo sapiens, THP1-Dual, 20 h, THP1-Dual cells, 10% human plasma, 20 hours, Lucia luciferase, 100% activation = 100 μM cGAMP
[5] = THP1-Dual cells, 10% human plasma, 20 hours, SEAP, 100% activation = 100 μM cGAMP
[6] = THP1-Dual cells, 10% human plasma, 20 hours, Lucia luciferase, 100% activation = 100 μM cGAMP

SMILES	EC50 [1, 3]	EC50 [2, 4]	further results
Cc1ccc(C(=O)OCC(F)(F)F)c2oc(CNC(=O)c3cnn4cccnc34)cc12 [EXAMPLE 358, 2,2,2-Trifluoroethyl 4-methyl-2-((pyrazolo[1,5-a]pyrimidine-3-carboxamido)methyl)benzofuran-7-carboxylate]	2 µM	2.9 µM	
O=C(OCC(F)(F)F)c1ccc(F)c2cc(Cn3cnc4ccncc4c3=O)oc12 [EXAMPLE 356]	18 µM	13 µM	
CC(OC(=O)c1cc(F)cc2cc(Cn3cnc4ccncc4c3=O)oc12)C(F)(F)F (centres unmarked) [EXAMPLE 365, 1,1,1-Trifluoropropan-2-yl 5-fluoro-2-((4-oxopyrido[4,3-d]pyrimidin-3(4H)-yl)methyl)benzofuran-7-carboxylate]			EC50 [1, 5]: 4.4 µM; EC50 [2, 6]: 7.5 µM
COC(=O)c1cc(F)cc2cc(Cn3ccc4ccncc4c3=O)oc12 [EXAMPLE 38, Methyl 5-fluoro-2-((1-oxo-2,7-naphthyridin-2(1H)-yl)methyl)benzofuran-7-carboxylate]	2.5 µM	2.3 µM	
COc1cc(C(=O)OC(C)C(F)(F)F)c2oc(CNC(=O)c3cnn4cccnc34)cc2c1 (single isomer, unassigned) [EXAMPLE 346, 1,1,1-Trifluoropropan-2-yl 5-methoxy-2-((pyrazolo[1,5-a]pyrimidine-3-carboxamido)methyl)benzofuran-7-carboxylate]			EC50 [1, 5]: 2.3 µM; EC50 [2, 6]: 3.2 µM
COC(=O)c1cc(C)cc2cc(CNC(=O)c3c(N)nn4cccnc34)oc12 [Example 93, Methyl 2-((2-aminopyrazolo[1,5-a]pyrimidine-3-carboxamido)methyl)-5-methylbenzofuran-7-carboxylate]	6 µM	3.7 µM	
CSC(=O)c1cc(Cl)cc2cc(CNC(=O)c3cnn4cccnc34)oc12 [EXAMPLE 395]	1.9 µM	2.1 µM	
C[C@H](NC(=O)c1cnn2cccnc12)c1cc2cc(F)cc(C(=O)SCC[Si](C)(C)C)c2o1 [EXAMPLE 398, S-(2-(Trimethylsilyl)ethyl) (S)-5-fluoro-2-(1-(pyrazolo[1,5-a]pyrimidine-3-carboxamido)ethyl)benzofuran-7-carbothioate]			EC50 ([1]; Homo sapiens, THP1-Dual, 20 h): 5.7 µM; EC50 ([2]; Homo sapiens, THP1-Dual, 20 h): 9.4 µM
COC(=O)c1cc(F)cc2cc(CN3CCc4ccncc4C3=O)oc12 [EXAMPLE 36, Methyl 5-fluoro-2-((1-oxo-3,4-dihydro-2,7-naphthyridin-2(1H)-yl)methyl)benzofuran-7-carboxylate]	4.1 µM	3.6 µM	

Further lines, with some results ahead:

EC50 [1, 3]	EC50 [2, 4]	SMILES	further results
2.3 µM	1.3 µM	COC(=O)c1cc(Cl)cc2cc(CNC(=O)c3cncc4c3ncn4C)oc12 [Example 69, Methyl 5-chloro-2-((3-methyl-3H-imidazo[4,5-c]pyridine-7-carboxamido)methyl)benzofuran-7-carboxylate]	
11 µM	28 µM	CN1CCN(CCOC(=O)c2cc(Cl)cc3cc(CNC(=O)c4cnn5cccnc45)oc23)CC1 [EXAMPLE 257, 2-(4-Methylpiperazin-1-yl)ethyl 5-chloro-2-((pyrazolo[1,5-a]pyrimidine-3-carboxamido)methyl)benzofuran-7-carboxylate]	
20 µM	21 µM	COC(=O)c1cc(C)cc2cc(CN3Cc4ccncc4C3=O)oc12 [Example 88, Methyl 5-methyl-2-((3-oxo-1,3-dihydro-2H-pyrrolo[3,4-c]pyridin-2-yl)methyl)benzofuran-7-carboxylate]	
0.28 µM	0.4 µM	COC(=O)c1cc(C)cc2c(Br)c(CNC(=O)c3cnn4cccnc34)oc12 [EXAMPLE 121, Methyl 3-bromo-5-methyl-2-((pyrazolo[1,5-a]pyrimidine-3-carboxamido)methyl)benzofuran-7-carboxylate]	
